Results reported in patent publication EP1377579B1 (Aventis Pharmaceuticals Inc., priority 2000, dated 2002).
Where a name gives a salt, the structure may show the parent alone.

Legend:
cdk4/cyclin D1 = cdk4/cyclin D1 (Homo sapiens, UniProt P11802); test: Cyclin-dependent kinase assay, cdk4/cyclin D1; assay type: biochemical; conditions: cyclin D1/cdk4; GST-pRb substrate, 10 µM ATP
MDA-MB-435 = test: In vitro proliferation assay (MTT), MDA-MB-435; assay type: cell-based, human; conditions: Homo sapiens, MDA-MB-435, MTT assay; value (SD, n) where given; read-out: MB-435 Breast (IC50 µM)
Method in brief: (§1)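 Tetrazolium (MTT) reduction measures live cells remaining after 3 days with test compound, following overnight attachment at 1000–2500 cells/well. Dye is taken up in DMSO and read at 570 nm.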

NCI-H460 = test: In vitro proliferation assay (MTT), NCI-H460; assay type: cell-based; conditions: Homo sapiens, NCI-H460; MTT assay; value (SD, n) where given; read-out: H-460 Lung (IC50 µM)
Method in brief: (§2)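 Overnight-recovered cultures (1000–2500 cells/well) were treated with compound for 3 days and then given MTT at 37 C for 2–4 hr. Dye was extracted with DMSO and read at 570 nm. IC50s were fitted to the absorbance-versus-concentration data.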

HL-60 = test: In vitro proliferation assay (MTT), HL-60; assay type: cell-based; conditions: Homo sapiens, HL-60; MTT assay; value (SD, n) where given; read-out: HL-60 Leuk. (IC50 µM)
Method in brief: as §2

Jurkat = test: In vitro proliferation assay (MTT), Jurkat; assay type: cell-based; conditions: Homo sapiens, MTT assay, value (SD, n) where given, read-out: Jurkat Leuk. (IC50 µM)
Method in brief: as §2

PC-3 = test: In vitro proliferation assay (MTT), PC-3; assay type: cell-based, human; conditions: Homo sapiens, PC-3, MTT assay; value (SD, n) where given; read-out: PC-3 Prostate (IC50 µM)
Method in brief: as §1

Colo-205 = test: In vitro proliferation assay (MTT), Colo-205; assay type: cell-based; conditions: Homo sapiens, COLO 205; MTT assay; value (SD, n) where given; read-out: Colo-205 Colon (IC50 µM)
Method in brief: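 After 3 days of compound exposure, MTT was added to Colo-205 cultures for 2–4 h at 37 °C. Formazan was dissolved in DMSO and absorbance read at 570 nm. Cells had been plated at 1000–2500/well and left to recover overnight; IC50 values came from the raw readings.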

cdk1/cyclin B = cdk1/cyclin B (Homo sapiens, UniProt P06493); test: Cyclin-dependent kinase assay, cdk1/cyclin B; conditions: CDK1 IC50, nM, Histone H1, 10 µM ATP
cdk2/cyclin E = cdk2/cyclin E (Homo sapiens, UniProt P24941); test: Cyclin-dependent kinase assay, cdk2/cyclin E; conditions: CDK2 IC50, nM, GST-pRb substrate, 10 µM ATP

Sequence of cdk4/cyclin D1 (P11802 whole entry): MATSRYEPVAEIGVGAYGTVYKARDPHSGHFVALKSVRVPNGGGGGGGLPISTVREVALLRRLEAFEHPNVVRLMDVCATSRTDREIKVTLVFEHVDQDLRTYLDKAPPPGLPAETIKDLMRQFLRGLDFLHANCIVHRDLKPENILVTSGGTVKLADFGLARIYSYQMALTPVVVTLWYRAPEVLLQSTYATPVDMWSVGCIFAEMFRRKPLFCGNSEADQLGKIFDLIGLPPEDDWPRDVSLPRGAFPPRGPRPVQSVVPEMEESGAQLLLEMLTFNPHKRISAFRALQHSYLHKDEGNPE
Sequence of cdk4/cyclin D1 (P24385 whole entry partner): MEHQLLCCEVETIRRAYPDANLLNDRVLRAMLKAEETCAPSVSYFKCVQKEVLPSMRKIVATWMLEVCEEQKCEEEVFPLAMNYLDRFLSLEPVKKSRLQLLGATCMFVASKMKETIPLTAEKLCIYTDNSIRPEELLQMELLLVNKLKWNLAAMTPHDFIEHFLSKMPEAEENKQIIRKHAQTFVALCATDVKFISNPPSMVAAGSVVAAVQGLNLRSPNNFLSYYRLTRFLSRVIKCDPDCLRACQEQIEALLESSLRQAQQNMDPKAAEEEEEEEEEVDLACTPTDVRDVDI
Sequence of cdk1/cyclin B (P06493 whole entry): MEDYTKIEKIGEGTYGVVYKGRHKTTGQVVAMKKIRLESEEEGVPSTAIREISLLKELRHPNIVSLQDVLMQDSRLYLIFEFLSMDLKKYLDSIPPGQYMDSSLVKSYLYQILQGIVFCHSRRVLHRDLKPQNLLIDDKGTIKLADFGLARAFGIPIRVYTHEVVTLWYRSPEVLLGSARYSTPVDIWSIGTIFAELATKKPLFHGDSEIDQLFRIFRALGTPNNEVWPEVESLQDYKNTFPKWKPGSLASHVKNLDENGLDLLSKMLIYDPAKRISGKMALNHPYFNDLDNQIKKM
Sequence of cdk1/cyclin B (P14635 whole entry partner): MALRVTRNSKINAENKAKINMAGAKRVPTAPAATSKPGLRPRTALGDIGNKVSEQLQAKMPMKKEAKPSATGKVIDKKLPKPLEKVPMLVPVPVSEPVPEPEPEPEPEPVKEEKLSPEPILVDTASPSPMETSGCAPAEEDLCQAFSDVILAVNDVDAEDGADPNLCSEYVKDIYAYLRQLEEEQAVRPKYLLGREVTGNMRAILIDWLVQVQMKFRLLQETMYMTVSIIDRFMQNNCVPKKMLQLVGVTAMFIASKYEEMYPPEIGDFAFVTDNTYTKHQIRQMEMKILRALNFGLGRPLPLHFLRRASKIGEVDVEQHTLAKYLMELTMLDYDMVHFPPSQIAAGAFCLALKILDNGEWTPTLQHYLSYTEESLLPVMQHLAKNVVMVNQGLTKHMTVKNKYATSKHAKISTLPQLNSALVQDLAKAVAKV

Row | SMILES | IC50 (cdk4/cyclin D1) [nM] | IC50 (MDA-MB-435) [µM] | IC50 (NCI-H460) [µM] | IC50 (HL-60) [µM] | IC50 (Jurkat) [µM] | IC50 (PC-3) [µM] | IC50 (Colo-205) [µM] | IC50 (cdk1/cyclin B) [nM] | IC50 (cdk2/cyclin E) [nM]
1 | N[C@H]1CC[C@H](Nc2nc(NC3CCN(C(=O)Nc4cc(F)ccc4F)CC3)c3ncn(C4CCCC4)c3n2)CC1 [compound 180, trans-4-[2-(4-Amino-cyclohexylamino)-9-cyclopentyl-9H-purin-6-ylamino]-piperidine-1-carboxylic acid (2,5-difluoro-phenyl)-amide dihydrochloride] | 431 | 0.1 | 0.12 | < 0.02 | 0.2 | 0.09 | 0.04 | 12 | 44
2 | N[C@H]1CC[C@H](Nc2nc(NC3CCN(C(=O)Nc4cc(Cl)cc(Cl)c4)CC3)c3ncn(C4CCCC4)c3n2)CC1 [compound 182, trans-4-[2-(4-Amino-cyclohexylamino)-9-cyclopentyl-9H-purin-6-ylamino]-piperidine-1-carboxylic acid (3,5-dichloro-phenyl)-amide dihydrochloride] | 305 | 0.15 | 0.12 | 0.02 | 0.17 | 0.1 | < 0.02 | 32 | 174
3 | Cc1ccc(NC(=O)N2CCC(Nc3nc(N[C@H]4CC[C@H](N)CC4)nc4c3ncn4C3CCCC3)CC2)cc1 [compound 183, trans-4-[2-(4-Amino-cyclohexylamino)-9-cyclopentyl-9H-purin-6-ylamino]-piperidine-1-carboxylic acid (4-methyl-phenyl)-amide dihydrochloride] | 338 | 0.11 | 0.2 | < 0.02 | 0.19 | 0.17 | 0.05 | 17 | 64
4 | CSc1ccc(NC(=O)N2CCC(Nc3nc(N[C@H]4CC[C@H](N)CC4)nc4c3ncn4C3CCCC3)CC2)cc1 [compound 186, trans-4-[2-(4-Amino-cyclohexylamino)-9-cyclopentyl-9H-purin-6-ylamino]-piperidine-1-carboxylic acid (4-methylsulfanyl-phenyl)-amide dihydrochloride] | 465 | 0.09 | 0.28 | < 0.02 | 0.21 | 0.16 | 0.03 | 11 | 56
5 | N[C@H]1CC[C@H](Nc2nc(NC3CCN(C(=O)Nc4ccccc4-c4ccccc4)CC3)c3ncn(C4CCCC4)c3n2)CC1 [compound 187, trans-4-[2-(4-Amino-cyclohexylamino)-9-cyclopentyl-9H-purin-6-ylamino]-piperidine-1-carboxylic acid biphenyl-2-yl-amide dihydrochloride] | 831 | 0.21 | 0.25 | < 0.02 | 0.35 | 0.19 | 0.19 | 280 | 61
6 | CC(C)c1ccc(NC(=O)N2CCC(Nc3nc(N[C@H]4CC[C@H](N)CC4)nc4c3ncn4C3CCCC3)CC2)cc1 [compound 190, trans-4-[2-(4-Amino-cyclohexylamino)-9-cyclopentyl-9H-purin-6-ylamino]-piperidine-1-carboxylic acid (4-isopropyl-phenyl)-amide dihydrochloride] | 357 | 0.09 | 0.36 | < 0.02 | 0.2 | 0.2 | 0.02 | 23 | 40
7 | CCOc1ccc(NC(=O)N2CCC(Nc3nc(N[C@H]4CC[C@H](N)CC4)nc4c3ncn4C3CCCC3)CC2)cc1 [compound 191, trans-4-[2-(4-Amino-cyclohexylamino)-9-cyclopentyl-9H-purin-6-ylamino]-piperidine-1-carboxylic acid (4-ethoxy-phenyl)-amide dihydrochloride] | 297 | 0.25 | 0.41 | < 0.02 | 0.36 | 0.24 | 0.07 | 23 | 36
8 | COC(=O)c1ccccc1NC(=O)N1CCC(Nc2nc(N[C@H]3CC[C@H](N)CC3)nc3c2ncn3C2CCCC2)CC1 [compound 193, trans-2-[(1-{4-[2-(4-Amino-cyclohexylamino)-9-cyclopentyl-9H-purin-6-ylamino]-piperidin-1-yl}-methanoyl)-amino]-benzoic acid methyl ester dihydrochloride] | 507 | 0.17 | 0.13 | 0.03 | 0.26 | 0.18 | 0.18 | 26 | 8
9 | CCOC(=O)c1ccccc1NC(=O)N1CCC(Nc2nc(N[C@H]3CC[C@H](N)CC3)nc3c2ncn3C2CCCC2)CC1 [compound 199, trans-2-[(1-{4-[2-(4-Amino-cyclohexylamino)-9-cyclopentyl-9H-purin-6-ylamino]-piperidin-1-yl}-methanoyl)-amino]-benzoic acid ethyl ester dihydrochloride] | 670 | 0.26 | 0.18 | 0.06 | 0.34 | 0.26 | 0.06 | 70 | 20
10 | N[C@H]1CC[C@H](Nc2nc(NC3CCN(C(=O)Nc4cc(C(F)(F)F)ccc4F)CC3)c3ncn(C4CCCC4)c3n2)CC1 [compound 200, trans-4-[2-(4-Amino-cyclohexylamino)-9-cyclopentyl-9H-purin-6-ylamino]-piperidine-1-carboxylic acid (2-fluoro-5-trifluoromethyl-phenyl)-amide dihydrochloride] | 597 | 0.09 | 0.19 | < 0.02 | 0.21 | 0.16 | 0.06 | 10 | 23
11 | N[C@H]1CC[C@H](Nc2nc(NC3CCN(C(=O)Nc4ccc(F)cc4C(F)(F)F)CC3)c3ncn(C4CCCC4)c3n2)CC1 [compound 202, trans-4-[2-(4-Amino-cyclohexylamino)-9-cyclopentyl-9H-purin-6-ylamino]-piperidine-1-carboxylic acid (4-fluoro-2-trifluoromethyl-phenyl)-amide dihydrochloride] | 673 | 0.22 | 0.33 | < 0.02 | 0.53 | 0.23 | 0.2 | 137 | 48
12 | N[C@H]1CC[C@H](Nc2nc(NC3CCN(C(=O)Nc4ccc(F)c(C(F)(F)F)c4)CC3)c3ncn(C4CCCC4)c3n2)CC1 [compound 203, trans-4-[2-(4-Amino-cyclohexylamino)-9-cyclopentyl-9H-purin-6-ylamino]-piperidine-1-carboxylic acid (4-fluoro-3-trifluoromethyl-phenyl)-amide dihydrochloride] | 733 | 0.22 | 0.54 | < 0.02 | 0.5 | 0.3 | 0.17 | 10 | 51
13 | N[C@H]1CC[C@H](Nc2nc(NC3CCN(C(=O)Nc4ccccc4F)CC3)c3ncn(C4CCCC4)c3n2)CC1 [compound 207, trans-4-[2-(4-Amino-cyclohexylamino)-9-cyclopentyl-9H-purin-6-ylamino]-piperidine-1-carboxylic acid (2-fluoro-phenyl)-amide dihydrochloride] | 44 | 0.11 | 0.14 | 0.02 | 0.13 | 0.13 | 0.03 | 50 | 46
14 | N[C@H]1CC[C@H](Nc2nc(NC3CCN(C(=O)Nc4ccc(Cl)c(Cl)c4)CC3)c3ncn(C4CCCC4)c3n2)CC1 [compound 209, trans-4-[2-(4-Amino-cyclohexylamino)-9-cyclopentyl-9H-purin-6-ylamino]-piperidine-1-carboxylic acid (3,4-dichloro-phenyl)-amide dihydrochloride] | 50 | 0.17 | 0.29 | < 0.02 | 0.13 | 0.26 | 0.05 | 13 | 34
